In article PMC10122656, “Siglec-6 mediates the uptake of extracellular vesicles through a noncanonical glycolipid binding pocket” (Nature Communications, 2023):
“And” between values parts separate entries of the source, which are not always exact repeats. Equal entries are not always repeated.

Legend:
[1] = molecular target: T1, Siglec-5 WT CHO cells (Homo sapiens, UniProt O15389); experiment: Cell assay (liposome/EV binding, flow cytometry); assay type: cell-based; conditions: Sig-5 WT†; † after treatment of cells with neuraminidase; 3 mol% ganglioside liposomes; replicates
T1 construct: expressed in transfected cells
T1 sequence (O15389 17-551): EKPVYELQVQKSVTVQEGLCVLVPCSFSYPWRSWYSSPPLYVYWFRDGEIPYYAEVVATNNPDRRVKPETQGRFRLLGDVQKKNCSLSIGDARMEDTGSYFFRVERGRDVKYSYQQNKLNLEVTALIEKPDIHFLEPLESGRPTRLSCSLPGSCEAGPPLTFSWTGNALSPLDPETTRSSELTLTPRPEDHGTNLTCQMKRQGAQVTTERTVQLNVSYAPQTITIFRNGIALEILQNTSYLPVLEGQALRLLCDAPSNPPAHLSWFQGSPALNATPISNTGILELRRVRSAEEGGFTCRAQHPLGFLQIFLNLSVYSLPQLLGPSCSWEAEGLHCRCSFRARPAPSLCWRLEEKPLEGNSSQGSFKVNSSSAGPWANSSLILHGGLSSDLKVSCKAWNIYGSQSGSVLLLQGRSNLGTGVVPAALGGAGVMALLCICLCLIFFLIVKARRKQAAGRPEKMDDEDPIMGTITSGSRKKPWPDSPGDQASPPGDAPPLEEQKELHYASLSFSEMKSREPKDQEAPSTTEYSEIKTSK
Protocol: (§1) Stock lipids (DSPC, Cholesterol, PEG45–DSPE) solutions were prepared by solvating the lipids in chloroform. An appropriate volume of each lipid solution was transferred to a glass test tube to reach the desired mol% of the component. The chloroform was then removed under N2 gas to yield a lipid thin film. Once dry, 100 µL of DMSO was added to the lipid-containing test tube and then the functional lipids (ganglioside, AF647–PEG45–DSPE, Siglec ligand–PEG45–DSPE, pHrodo–PEG45–DSPE, NGL) was added from their respect DMSO stock solution. The lipid mixture was then stored at −80 °C until completely frozen at which point excess DMSO was removed via lyophilization. Dry lipids were then stored at −80 °C until they were extruded. Lipid suppliers can be found in Supplementary Table 4.
(§2) Dry lipids were then hydrated in 1 mL of PBS. The lipids were then sonicated in a bath sonicator in a cycle of 1 min on, 5 min off for a total of five cycles. Liposomes were then extruded using an Avanti mini extruder first using an 800 nm filter and then a 100 nm filter yielding liposomes that were 130 ± 35 nm (Supplementary Table 5) measured using a Malvern Panalytical Zetasizer Nano S. Liposomes were stored at 4 °C.
(§3) 200,000 cells/well were plated into a 96-well U-bottom microplate and centrifuged at 300 × g for 5 min. The cells were then resuspended in 50 µL of 50 µM liposome/50 µg/mL (protein concentration) of EV solution in DMEM F12 5% FBS and incubated at 37 °C for 30 min. Excess liposomes were then removed via centrifuged at 300 × g for 5 min followed by washing the cells with FACS solution. The cells were then resuspended in (1:250 V/V) anti-Siglec-flow buffer (1% V/V FBS, 500 µM, EDTA Hank’s Balanced Salt Solution pH 7.4), solution and left to rest on ice for 30 min. The cells were then centrifuged again at 300 × g for 5 min and the cells were resuspended in FACS buffer solution and were then ready for analysis by flow cytometry. Information regarding antibody clone, catalog number supplier, label isotype, and dilution can be found in Supplementary Table 6. The Siglec-positive cells were gated on for liposome-binding analysis (Supplementary Fig. 1b).
(§4) Flow cytometry measurements were collected on a 5-laser Fortessa X-20 (BD Bioscience). All the resulting data were analyzed using FlowJo (10.5.3) software (BD Biosciences).
Cells were harvested and resuspended in complete media with either Neuraminidase A or S. The cells were then placed in a 37 °C shaking incubator for 1 h. The cells were then washed with complete media and then the liposome binding assay was performed as described above.

[2] = molecular target: T2, WT Siglec-1 CHO cells (Homo sapiens, UniProt Q9BZZ2); experiment: Cell assay (liposome/EV binding, flow cytometry); assay type: cell-based; set-up: GM1 liposome binding to Siglec-1 CHO cells, flow cytometry (Fig. 1b) / Binding of liposomes with increasing ganglioside content against Siglec-1 CHO cells (Fig. 1c) / Liposome binding to Siglec-1-expressing CHO cells in the cell assay (Fig. 1f): unit not given here; conditions: for Binding of liposomes with increasing ganglioside content against Siglec-1 CHO cells (Fig. 1c) / log10(MFI AF647) of GLL relative to log10(MFI AF647) of the same GLL against UT CHO cells (Fig. 2a): replicates; for log10(MFI AF647) of GLL relative to log10(MFI AF647) of the same GLL against UT CHO cells (Fig. 2a): Sig-1 WT, 3 mol% ganglioside liposomes
T2 construct: expressed in transfected cells
T2 sequence (Q9BZZ2 20-1709): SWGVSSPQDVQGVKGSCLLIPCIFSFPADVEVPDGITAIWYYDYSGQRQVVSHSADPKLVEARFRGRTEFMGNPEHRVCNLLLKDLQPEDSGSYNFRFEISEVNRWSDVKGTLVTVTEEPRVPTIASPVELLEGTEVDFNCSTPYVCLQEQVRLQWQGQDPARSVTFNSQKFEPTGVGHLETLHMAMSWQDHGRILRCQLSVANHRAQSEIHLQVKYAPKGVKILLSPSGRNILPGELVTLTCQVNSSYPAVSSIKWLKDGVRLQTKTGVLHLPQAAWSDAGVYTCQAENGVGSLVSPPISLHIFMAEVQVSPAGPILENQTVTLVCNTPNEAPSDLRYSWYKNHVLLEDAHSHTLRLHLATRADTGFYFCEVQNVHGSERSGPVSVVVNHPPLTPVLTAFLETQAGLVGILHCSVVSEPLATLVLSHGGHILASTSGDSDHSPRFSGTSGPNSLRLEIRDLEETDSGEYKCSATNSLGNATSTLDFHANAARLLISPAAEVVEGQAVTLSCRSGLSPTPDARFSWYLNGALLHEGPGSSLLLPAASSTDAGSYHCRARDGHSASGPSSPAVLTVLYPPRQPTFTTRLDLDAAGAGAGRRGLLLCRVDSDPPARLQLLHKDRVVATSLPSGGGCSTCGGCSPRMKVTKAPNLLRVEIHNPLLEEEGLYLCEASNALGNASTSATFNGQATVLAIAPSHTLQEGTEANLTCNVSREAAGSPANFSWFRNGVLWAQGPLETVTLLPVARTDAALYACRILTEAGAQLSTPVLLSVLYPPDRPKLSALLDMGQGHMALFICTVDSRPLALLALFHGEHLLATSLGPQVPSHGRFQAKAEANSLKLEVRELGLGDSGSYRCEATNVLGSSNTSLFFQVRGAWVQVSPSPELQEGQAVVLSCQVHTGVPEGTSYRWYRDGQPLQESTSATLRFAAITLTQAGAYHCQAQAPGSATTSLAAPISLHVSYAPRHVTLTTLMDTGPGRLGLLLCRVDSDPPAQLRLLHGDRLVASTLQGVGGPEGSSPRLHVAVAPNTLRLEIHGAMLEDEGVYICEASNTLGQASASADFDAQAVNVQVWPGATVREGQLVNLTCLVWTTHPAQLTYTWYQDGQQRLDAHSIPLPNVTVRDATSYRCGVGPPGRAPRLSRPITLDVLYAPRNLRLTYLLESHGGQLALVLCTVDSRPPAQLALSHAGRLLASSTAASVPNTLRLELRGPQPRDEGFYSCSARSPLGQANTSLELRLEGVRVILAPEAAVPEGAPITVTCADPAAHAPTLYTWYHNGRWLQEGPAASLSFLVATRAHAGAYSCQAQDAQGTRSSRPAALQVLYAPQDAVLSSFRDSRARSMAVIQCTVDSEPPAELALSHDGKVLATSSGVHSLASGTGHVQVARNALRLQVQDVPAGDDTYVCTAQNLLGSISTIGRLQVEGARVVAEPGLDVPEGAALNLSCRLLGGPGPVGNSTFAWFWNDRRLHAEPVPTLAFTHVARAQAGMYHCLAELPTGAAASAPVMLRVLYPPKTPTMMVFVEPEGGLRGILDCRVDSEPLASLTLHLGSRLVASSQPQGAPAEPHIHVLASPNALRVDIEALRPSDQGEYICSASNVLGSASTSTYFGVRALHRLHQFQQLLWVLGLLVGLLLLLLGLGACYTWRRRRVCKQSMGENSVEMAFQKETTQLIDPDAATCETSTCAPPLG
Protocol: as §1, §2, §3, §4

[3] = tested on: Siglec-1-Fc R116A; experiment: Ganglioside ELISA; assay type: binding, human; conditions: Figure 2c, replicates
Sequence of Siglec-1-Fc R116A (Q9BZZ2 20-136 R116A limits assumed): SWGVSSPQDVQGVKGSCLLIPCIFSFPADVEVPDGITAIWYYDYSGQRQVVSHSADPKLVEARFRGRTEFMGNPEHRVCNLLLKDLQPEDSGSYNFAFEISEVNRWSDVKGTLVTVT
Protocol: Siglec-Fc constructs designed by Rodrigues et al.[30] were used in this work. Siglec-Fc constructs were expressed using WT CHO cells in cell culture media as described above with 1% HEPES. Cells incubated as described above for one-week post confluency. The supernatant was harvested and stored at 4 °C.
The purification was heavily inspired by Rodrigues et al.[30]. The purification of the Siglec-Fcs from supernatant began with Ni^2+ affinity chromatography using an AKTA FPLC equipped with a HisTrap Excel column (GE). The column was equilibrated with fifteen column volumes (CVs) of equilibrium buffer (500 mM NaCl, 20 mM NaPO4H2, pH 7.4). The Siglec-Fc containing supernatant was then loaded in its entirety onto the column. The column was then washed with fifteen CVs of wash buffer (500 mM NaCl, 30 mM imidazole, 20 mM NaPO4H2, pH 7.4). The Siglec-Fc was then eluted in 20 in 1 mL fractions with twenty CVs of elution buffer (500 mM NaCl, 500 mM imidazole, 20 mM NaPO4H2, pH 7.4). […] A Strep-Tactin column (IBA life sciences) was washed with fifteen CVs of buffer W. The Siglec-Fc-buffer W solution was then loaded in its entirety onto the column. […] Fractions containing Siglec-Fc were pooled and dialyzed against PBS to remove any d-Desthiobiotin. After dialysis, Siglec-Fcs were concentrated using an ultra-centrifugal device (30 kDa MWCO) and aliquoted into 5 µg aliquots, and frozen. The Siglec-Fcs were then lyophilized overnight, and the lyophilized Siglec-Fcs were stored at −20 °C.
Our ELISA approach was carried out similarly to previous work by Rapoport[12] and Yamakawa[44]. Ganglioside ethanol solutions (10 µM) were prepared and then transferred in 50 µL increments to a 96-well microplate. The ethanol was removed by drying the plates overnight at room temperature. The plates were then washed with PBS, dried, and then blocked with 5% (m/V) BSA PBS for 1 h. The plates were then washed with PBS and then 2 µg/mL Siglec-Fc precomplexed to Strep-Tactin (2 Siglec-Fc:1 Strep-Tactin monomer) horse radish peroxidase was added to the microplate. The complex was incubated with the plate at room temperature for 2 h. The unbound complexes were then removed by washing in PBS and the plate was developed with Sera care TMB solution. The amount of binding was then quantified by using the background (microplate well with no ligand) subtracted absorbance at 450 nm using a Molecular Devices SpectraMAX ® iD5.

[4] = tested on: untransfected (UT) CHO cells; experiment: Cell assay (liposome/EV binding, flow cytometry); assay type: cell-based, Chinese Hamster; conditions: UT; 3 mol% ganglioside liposomes; replicates
Protocol: as §1, §2, §3, §4

GM3 was tested, and the “log10(MFI AF647) of GLL relative to log10(MFI AF647) of the same GLL against UT CHO cells (Fig. 2a)” value [1] was -0.05 (2×) and -0.08, the “Binding of liposomes with increasing ganglioside content against Siglec-1 CHO cells (Fig. 1c)” value ([2]; 0.0187 Ligand/nm2) was 0 and the “Binding of liposomes with increasing ganglioside content against Siglec-1 CHO cells (Fig. 1c)” value ([2]; 0.056 Ligand/nm2) was 0.02. The “Binding of liposomes with increasing ganglioside content against Siglec-1 CHO cells (Fig. 1c)” value ([2]; 0.0933 Ligand/nm2) was 0.04, the “Binding of liposomes with increasing ganglioside content against Siglec-1 CHO cells (Fig. 1c)” value ([2]; 0.187 Ligand/nm2) was 0.13 (2×) and 0.12 and 0.14 and 0.16 (4×) and the “Binding of liposomes with increasing ganglioside content against Siglec-1 CHO cells (Fig. 1c)” value ([2]; 0.373 Ligand/nm2) was 0.33 and 0.36 and 0.26. The “log10(MFI AF647) of GLL relative to log10(MFI AF647) of the same GLL against UT CHO cells (Fig. 2a)” value [2] was 0.19 and 0.16 and 0.23 and 0.17, the “trend of GLL binding to Siglec-1 CHO cells with ganglioside content” value ([2]; ganglioside titrated in GLLs) was “progressive increase in GLL binding up to 20 mol%” and the “ganglioside ELISA signal, Siglec-1 R” value [3] was 0.33 and 0.4 and 0.43 and 0.46. The “log10(MFI AF647) of GLL relative to log10(MFI AF647) of the same GLL against UT CHO cells (Fig. 2a)” value [4] was 0.01 (2×) and -0.01 and 0.
With GM4 the “log10(MFI AF647) of GLL relative to log10(MFI AF647) of the same GLL against UT CHO cells (Fig. 2a)” value [1] was 0.08 (2×) and 0.05, the “log10(MFI AF647) of GLL relative to log10(MFI AF647) of the same GLL against UT CHO cells (Fig. 2a)” value [2] was 0.04 and 0.02 (2×) and -0.02 and the “ganglioside ELISA signal, Siglec-1 R” value [3] was 0.18 and 0.21 and 0.26 and 0.27. For the same substance, the “log10(MFI AF647) of GLL relative to log10(MFI AF647) of the same GLL against UT CHO cells (Fig. 2a)” value [4] was 0.02 and -0.01 (2×) and 0.
With GQ1b the “log10(MFI AF647) of GLL relative to log10(MFI AF647) of the same GLL against UT CHO cells (Fig. 2a)” value [1] was 0.86 (2×) and 0.94, the “log10(MFI AF647) of GLL relative to log10(MFI AF647) of the same GLL against UT CHO cells (Fig. 2a)” value [2] was 0.04 and 0.07 and 0.05 and 0.03 and the “ganglioside ELISA signal, Siglec-1 R” value [3] was -0.01 and -0.02 and 0. For the same substance, the “log10(MFI AF647) of GLL relative to log10(MFI AF647) of the same GLL against UT CHO cells (Fig. 2a)” value [4] was 0.01 and -0.02 (2×) and 0.03.
GT1b was tested, and the “log10(MFI AF647) of GLL relative to log10(MFI AF647) of the same GLL against UT CHO cells (Fig. 2a)” value [1] was 0.58 and 0.64 and 0.55, the “log10(MFI AF647) of GLL relative to log10(MFI AF647) of the same GLL against UT CHO cells (Fig. 2a)” value [2] was 0.29 (2×) and 0.32 and 0.23 and the “ganglioside ELISA signal, Siglec-1 R” value [3] was 0.02 and 0.04 and 0.03. The “log10(MFI AF647) of GLL relative to log10(MFI AF647) of the same GLL against UT CHO cells (Fig. 2a)” value [4] was 0 (2×) and 0.01 and -0.01.
